Here are results for 16 compounds from patent US20090286806A1, “ISOXAZOLE DERIVATIVES AS CALCIUM CHANNEL BLOCKERS” (priority 2006, published 2009).

Read-outs that look alike come from different tables or passages of the source.

The target in test [1] is T1, rat brain N-type calcium channel subunits (α1B+α2δ+β1b cDNA subunits) (Rattus norvegicus, UniProt Q02294).
T1 construct: expressed in transfected cells; host or cells: HEK 293
The test can be described thus: N-type calcium channel block, whole cell patch clamp in transfected HEK 293 cells. It is filed as cell-based. To be noted: holding potential −80 mV to +10 mV. Here is the method: N-type calcium channel blocking activity was assayed in human embryonic kidney cells, HEK 293, stably transfected with the rat brain N-type calcium channel subunits (α1B+α2δ+β1b cDNA subunits). Alternatively, N-type calcium channels (α1B+α2δ+β1b cDNA subunits), L-type channels (α1C+α2δ+β1b cDNA subunits) and P/Q-type channels (α1A+α2δ+β1b cDNA subunits) were transiently expressed in HEK 293 cells. Briefly, cells were cultured in Dulbecco's modified eagle medium (DMEM) supplemented with 10% fetal bovine serum, 200 U/ml penicillin and 0.2 mg/ml streptomycin at 37° C. with 5% CO2. At 85% confluency cells were split with 0.25% trypsin/1 mM EDTA and plated at 10% confluency on glass coverslips. At 12 hours the medium was replaced and the cells transiently transfected using a standard calcium phosphate protocol and the appropriate calcium channel cDNA's. Fresh DMEM was supplied and the cells transferred to 28° C./5% CO2. Cells were incubated for 1 to 2 days prior to whole cell recording.
Whole cell patch clamp experiments were performed using an Axopatch 200B amplifier (Axon Instruments, Burlingame, Calif.) linked to a personal computer equipped with pCLAMP software. The external and internal recording solutions contained, respectively, 5 mM BaCl2, 10 mM MgCl2, 10 mM HEPES, 40 mM TEACl, 10 mM glucose, 87.5 mM CsCl (pH 7.2) and 108 mM CsMS, 4 mM MgCl2, 9 mM EGTA, 9 mM HEPES (pH 7.2). Currents were typically elicited from a holding potential of −80 mV to +10 mV using Clampex software (Axon Instruments). Typically, currents were first elicited with low frequency stimulation (0.067 Hz) and allowed to stabilize prior to application of the compounds. The compounds were then applied during the low frequency pulse trains for two to three minutes to assess tonic block, and subsequently the pulse frequency was increased to 0.2 Hz to assess frequency dependent block. Data were analyzed using Clampfit (Axon Instruments) and SigmaPlot 4.0 (Jandel Scientific).

The target of test [2] is T2, human α1G T-type channels (Homo sapiens, UniProt O43497).
T2 construct: expressed in transfected cells; host or cells: HEK cell lines
T2 sequence (O43497 whole entry): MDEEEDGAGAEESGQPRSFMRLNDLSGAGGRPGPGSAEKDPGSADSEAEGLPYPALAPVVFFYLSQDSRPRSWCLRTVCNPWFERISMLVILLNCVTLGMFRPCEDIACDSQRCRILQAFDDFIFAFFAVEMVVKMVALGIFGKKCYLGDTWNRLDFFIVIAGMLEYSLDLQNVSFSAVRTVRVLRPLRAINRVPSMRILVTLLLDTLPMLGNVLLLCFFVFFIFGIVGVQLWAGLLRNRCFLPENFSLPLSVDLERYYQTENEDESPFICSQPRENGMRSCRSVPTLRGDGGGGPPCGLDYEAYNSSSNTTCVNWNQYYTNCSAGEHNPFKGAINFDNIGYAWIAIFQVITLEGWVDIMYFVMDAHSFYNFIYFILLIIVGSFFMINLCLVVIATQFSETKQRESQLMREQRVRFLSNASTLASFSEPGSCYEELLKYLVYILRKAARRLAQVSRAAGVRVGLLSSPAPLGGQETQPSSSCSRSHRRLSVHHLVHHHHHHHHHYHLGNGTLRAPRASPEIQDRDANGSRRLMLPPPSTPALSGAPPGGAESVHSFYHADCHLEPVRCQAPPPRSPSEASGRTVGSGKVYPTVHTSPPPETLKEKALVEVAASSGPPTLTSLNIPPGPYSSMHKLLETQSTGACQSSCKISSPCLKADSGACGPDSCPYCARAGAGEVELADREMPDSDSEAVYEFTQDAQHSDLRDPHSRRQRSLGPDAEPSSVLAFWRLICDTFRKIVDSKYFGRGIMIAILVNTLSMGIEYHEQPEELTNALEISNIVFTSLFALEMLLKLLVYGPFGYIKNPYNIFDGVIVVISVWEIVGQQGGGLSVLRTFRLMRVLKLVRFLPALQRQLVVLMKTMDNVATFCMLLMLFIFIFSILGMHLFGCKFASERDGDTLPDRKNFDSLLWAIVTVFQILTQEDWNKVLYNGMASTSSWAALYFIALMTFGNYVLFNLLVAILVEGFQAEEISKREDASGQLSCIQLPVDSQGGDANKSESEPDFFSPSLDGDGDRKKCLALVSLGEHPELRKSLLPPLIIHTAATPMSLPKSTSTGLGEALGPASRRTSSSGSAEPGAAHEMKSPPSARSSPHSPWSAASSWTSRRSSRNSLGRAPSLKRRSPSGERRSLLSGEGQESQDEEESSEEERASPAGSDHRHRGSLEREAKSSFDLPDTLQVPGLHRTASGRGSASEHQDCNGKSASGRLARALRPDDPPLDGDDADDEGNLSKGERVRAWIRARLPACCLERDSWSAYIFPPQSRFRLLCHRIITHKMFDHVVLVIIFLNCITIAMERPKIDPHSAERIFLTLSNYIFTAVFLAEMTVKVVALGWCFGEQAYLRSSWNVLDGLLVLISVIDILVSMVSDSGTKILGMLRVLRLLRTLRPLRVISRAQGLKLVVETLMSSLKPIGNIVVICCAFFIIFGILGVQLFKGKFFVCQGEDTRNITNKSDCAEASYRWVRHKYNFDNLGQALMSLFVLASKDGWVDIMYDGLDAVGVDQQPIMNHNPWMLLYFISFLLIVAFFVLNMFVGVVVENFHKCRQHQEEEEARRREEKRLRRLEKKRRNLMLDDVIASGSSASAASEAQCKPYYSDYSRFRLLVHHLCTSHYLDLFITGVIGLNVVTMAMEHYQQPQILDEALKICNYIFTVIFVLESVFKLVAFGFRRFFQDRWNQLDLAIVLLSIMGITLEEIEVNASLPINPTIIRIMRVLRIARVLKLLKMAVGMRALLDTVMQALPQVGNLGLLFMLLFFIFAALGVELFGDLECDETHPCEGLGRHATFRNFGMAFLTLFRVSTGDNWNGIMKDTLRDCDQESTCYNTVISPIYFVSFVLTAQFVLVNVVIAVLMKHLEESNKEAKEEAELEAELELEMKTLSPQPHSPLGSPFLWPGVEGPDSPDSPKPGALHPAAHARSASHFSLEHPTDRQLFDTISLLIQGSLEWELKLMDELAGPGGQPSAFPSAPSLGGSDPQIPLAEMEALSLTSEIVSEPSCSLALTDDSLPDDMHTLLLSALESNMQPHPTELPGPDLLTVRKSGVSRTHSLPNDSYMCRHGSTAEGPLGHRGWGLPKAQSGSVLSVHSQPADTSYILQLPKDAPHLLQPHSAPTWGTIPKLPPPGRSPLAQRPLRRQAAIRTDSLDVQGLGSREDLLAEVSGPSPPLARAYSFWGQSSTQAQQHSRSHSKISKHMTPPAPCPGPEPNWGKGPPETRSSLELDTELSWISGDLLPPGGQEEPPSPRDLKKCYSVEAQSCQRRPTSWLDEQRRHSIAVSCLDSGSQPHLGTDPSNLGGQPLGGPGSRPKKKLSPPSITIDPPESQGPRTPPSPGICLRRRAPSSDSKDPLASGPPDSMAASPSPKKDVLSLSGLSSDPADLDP
Nature of the test: T-type calcium channel block, whole-cell patch clamp in HEK cell lines. It is filed as cell-based. To be noted: HEK cells. The protocol:
Standard patch-clamp techniques were employed to identify blockers of T-type currents. Briefly, previously described HEK cell lines stably expressing human α1G T-type channels were used for all the recordings (passage #: 4-20, 37° C., 5% CO2). To obtain T-type currents, plastic dishes containing semi-confluent cells were positioned on the stage of a ZEISS AXIOVERT S100 microscope after replacing the culture medium with external solution (see below). Whole-cell patches were obtained using pipettes (borosilicate glass with filament, O.D.: 1.5 mm, I.D.: 0.86 mm, 10 cm length), fabricated on a SUTTER P-97 puller with resistance values of ˜5 M• (see below for internal solution).
In the non-inactivating protocol, the holding potential is set at −110 mV and with a pre-pulse at −100 mV for 1 second prior to the test pulse at −40 mV for 50 ms. […]
Test compounds were dissolved in external solution, 0.1-0.01% DMSO. After ˜10 min rest, they were applied by gravity close to the cell using a WPI microfil tubing. The “non-inactivated” pre-pulse was used to examine the resting block of a compound. The “inactivated” protocol was employed to study voltage-dependent block. However, the initial data shown below were mainly obtained using the non-inactivated protocol only. IC50 values are shown for various compounds of the invention in Table 5.
On the technique in general: Patch clamp records ionic current or voltage across a cell membrane.

Test [3] has as its system T-type over L-type channels. Conditions: literature statement (Heady et al. 2001); cited from earlier work.
[4] abbreviates: low frequency stimulation 0.067 Hz (tonic block), read-out: IC50 @ 0.067 Hz.
The mark [5] stands for this setting: pulse frequency 0.2 Hz (frequency dependent block), read-out: IC50 @ 0.2 Hz.
[6] abbreviates: inactivation protocol (voltage-dependent block), read-out: IC50 @ −80 mV.
The mark [7] stands for this setting: non-inactivating protocol, pre-pulse −100 mV (resting block), read-out: IC50 @ −100 mV.

T1 sequence (Q02294 whole entry): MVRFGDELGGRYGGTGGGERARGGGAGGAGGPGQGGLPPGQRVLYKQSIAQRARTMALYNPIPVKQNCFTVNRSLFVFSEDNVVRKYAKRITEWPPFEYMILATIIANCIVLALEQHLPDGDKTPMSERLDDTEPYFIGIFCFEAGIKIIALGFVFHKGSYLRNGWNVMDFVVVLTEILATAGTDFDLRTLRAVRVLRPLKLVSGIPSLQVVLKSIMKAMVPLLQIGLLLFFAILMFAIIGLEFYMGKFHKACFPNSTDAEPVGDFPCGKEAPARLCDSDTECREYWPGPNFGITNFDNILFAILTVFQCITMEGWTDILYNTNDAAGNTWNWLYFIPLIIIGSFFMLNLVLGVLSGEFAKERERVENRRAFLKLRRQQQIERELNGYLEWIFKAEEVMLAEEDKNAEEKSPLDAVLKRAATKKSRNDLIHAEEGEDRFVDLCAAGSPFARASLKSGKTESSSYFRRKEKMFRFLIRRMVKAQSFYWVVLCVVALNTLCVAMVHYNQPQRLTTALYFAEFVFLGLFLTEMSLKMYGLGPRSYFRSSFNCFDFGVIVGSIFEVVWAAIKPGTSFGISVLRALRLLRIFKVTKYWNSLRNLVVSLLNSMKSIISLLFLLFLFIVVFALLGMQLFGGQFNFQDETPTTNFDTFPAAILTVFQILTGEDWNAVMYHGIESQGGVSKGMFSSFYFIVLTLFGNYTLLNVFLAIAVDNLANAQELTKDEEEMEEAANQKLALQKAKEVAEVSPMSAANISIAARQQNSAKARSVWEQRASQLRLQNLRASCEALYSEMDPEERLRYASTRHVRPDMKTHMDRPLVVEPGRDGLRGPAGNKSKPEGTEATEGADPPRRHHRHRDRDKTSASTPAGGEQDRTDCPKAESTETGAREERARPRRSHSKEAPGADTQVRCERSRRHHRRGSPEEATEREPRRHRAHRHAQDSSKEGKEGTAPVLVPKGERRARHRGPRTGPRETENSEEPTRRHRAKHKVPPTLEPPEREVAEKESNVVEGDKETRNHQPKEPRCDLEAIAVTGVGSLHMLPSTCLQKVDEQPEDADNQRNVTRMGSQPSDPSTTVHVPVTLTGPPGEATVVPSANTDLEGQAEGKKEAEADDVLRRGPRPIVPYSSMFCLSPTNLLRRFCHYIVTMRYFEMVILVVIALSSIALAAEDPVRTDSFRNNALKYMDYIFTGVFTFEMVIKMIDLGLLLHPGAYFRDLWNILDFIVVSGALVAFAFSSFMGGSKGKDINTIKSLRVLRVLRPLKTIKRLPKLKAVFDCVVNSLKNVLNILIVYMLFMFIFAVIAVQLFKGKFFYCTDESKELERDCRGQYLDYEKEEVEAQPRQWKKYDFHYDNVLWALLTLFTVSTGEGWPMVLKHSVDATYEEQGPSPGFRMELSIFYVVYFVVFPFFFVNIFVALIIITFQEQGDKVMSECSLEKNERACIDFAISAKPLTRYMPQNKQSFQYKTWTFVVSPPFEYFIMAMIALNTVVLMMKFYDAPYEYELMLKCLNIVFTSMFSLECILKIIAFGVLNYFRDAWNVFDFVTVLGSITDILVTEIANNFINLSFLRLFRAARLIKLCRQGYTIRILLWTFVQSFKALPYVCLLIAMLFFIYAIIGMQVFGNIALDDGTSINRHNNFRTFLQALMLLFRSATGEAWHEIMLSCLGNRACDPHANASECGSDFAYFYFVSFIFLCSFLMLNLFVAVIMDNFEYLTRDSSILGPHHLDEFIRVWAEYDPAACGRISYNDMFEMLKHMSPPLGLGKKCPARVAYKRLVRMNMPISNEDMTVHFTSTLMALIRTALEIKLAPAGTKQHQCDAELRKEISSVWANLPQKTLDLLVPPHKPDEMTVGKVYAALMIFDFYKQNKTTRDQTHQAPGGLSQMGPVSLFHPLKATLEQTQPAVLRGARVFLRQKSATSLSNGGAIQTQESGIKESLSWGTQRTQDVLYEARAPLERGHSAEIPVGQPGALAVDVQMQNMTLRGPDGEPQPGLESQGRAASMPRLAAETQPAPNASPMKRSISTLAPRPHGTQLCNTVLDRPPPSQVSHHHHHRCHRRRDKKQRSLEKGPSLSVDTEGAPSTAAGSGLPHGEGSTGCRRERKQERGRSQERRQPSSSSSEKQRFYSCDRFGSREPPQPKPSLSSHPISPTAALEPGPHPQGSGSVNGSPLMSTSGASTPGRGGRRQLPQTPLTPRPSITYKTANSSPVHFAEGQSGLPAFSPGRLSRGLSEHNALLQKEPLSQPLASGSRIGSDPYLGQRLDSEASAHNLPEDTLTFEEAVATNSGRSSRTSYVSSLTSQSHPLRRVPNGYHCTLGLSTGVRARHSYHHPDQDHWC

The term IC50 denotes the concentration that gives 50% inhibition. Regarding `O=C(c1cc(-c2ccccc2)no1)N1CCN(C(c2ccccc2)c2ccccc2)CC1` [Compound 1, (4-benzhydrylpiperazin-1-yl)(3-phenylisoxazol-5-yl)methanone], the IC50 in test [1] (setting [4]) was 0.65 µM; in test [1] (setting [5]) it was 0.29 µM; in test [2] (setting [6]) it was 1.9 µM; in test [2] (setting [7]), more than 10 µM.

Turning to `c1ccc(-c2cc(CN3CCN(C(c4ccccc4)c4ccccc4)CC3)on2)cc1` [Compound 2, 5-((4-benzhydrylpiperazin-1-yl)methyl)-3-phenylisoxazole], the IC50 was 1.7 µM in test [1] (setting [4]), 0.67 µM in test [1] (setting [5]), 0.35 µM in test [2] (setting [6]) and 1.6 µM in test [2] (setting [7]).

For `O=C(c1cc(-c2ccccc2F)no1)N1CCN(C(c2ccccc2)c2ccccc2)CC1` [Compound 3, (4-benzhydrylpiperazin-1-yl)(3-(2-fluorophenyl)isoxazol-5-yl)methanone], the figures for the IC50 in test [1] (setting [4]) and in test [1] (setting [5]) were 0.8 µM and 0.37 µM, respectively.

Consider `COc1ccccc1-c1cc(C(=O)N2CCN(C(c3ccccc3)c3ccccc3)CC2)on1` [Compound 4, (4-benzhydrylpiperazin-1-yl)(3-(2-methoxyphenyl)isoxazol-5-yl)methanone], for which the IC50 in test [1] (setting [4]) was determined as 2.99 µM; in test [1] (setting [5]), 1.49 µM.

Take `COc1ccccc1-c1cc(CN2CCN(C(c3ccccc3)c3ccccc3)CC2)on1` [Compound 5, 5-((4-benzhydry1piperazin-1-yl)methyl)-3-(2-methoxyphenyl)isoxazole]: the IC50 in test [1] (setting [4]) stood at 0.68 µM; in test [1] (setting [5]), 0.34 µM.

As to `Fc1ccccc1-c1cc(CN2CCN(C(c3ccccc3)c3ccccc3)CC2)on1` [Compound 6, 5-((4-benzhydry1piperazin-1-yl)methyl)-3-(2-fluorophenyl)isoxazole], the IC50 was 3.4 µM in test [1] (setting [4]) and 1.1 µM in test [1] (setting [5]).

For the compound `O=C(CC(c1ccccc1)c1ccccc1)N1CCN(Cc2cc(-c3ccccc3F)no2)CC1` [Compound 7, 1-(4-((3-(2-fluorophenyl)isoxazol-5-yl)methyl)piperazin-1-yl)-3,3-diphenylpropan-1-one], the results for the concentration for half-maximal inhibition (IC50) in test [1] (setting [4]) and in test [1] (setting [5]) were 0.52 µM and 0.33 µM, respectively.

With `COc1ccccc1-c1cc(CN2CCN(C(=O)CC(c3ccccc3)c3ccccc3)CC2)on1` [Compound 8, 1-(4-((3-(2-methoxyphenyl)isoxazol-5-yl)methyl)piperazin-1-yl)-3,3-diphenylpropan-1-one], the IC50 turned out to be 0.6 µM in test [1] (setting [4]) and 0.29 µM in test [1] (setting [5]).

In the case of `O=C(CC(c1ccccc1)c1ccccc1)N1CCN(Cc2cc(-c3ccccc3)no2)CC1` [Compound 9, 3,3-diphenyl-1-(4-((3-phenylisoxazol-5-yl)methyl)piperazin-1-yl)propan-1-one], the half-inhibitory concentration (IC50) was 2.8 µM in test [1] (setting [4]), 1.2 µM in test [1] (setting [5]), 1.7 µM in test [2] (setting [6]) and more than 10 µM in test [2] (setting [7]).

For the compound `Cc1ccc(C(c2ccccc2)N2CCN(Cc3cc(-c4ccccc4)no3)CC2)c(C)c1` (stereo not drawn) [Compound 10, 5-((4-((2,4-dimethylphenyl)(phenyl)methyl)piperazin-1-yl)methyl)-3-phenylisoxazole], the IC50 in test [1] (setting [4]) was 1.07 µM; in test [1] (setting [5]), 0.4 µM; in test [2] (setting [6]) it was 2.18 µM; in test [2] (setting [7]), 9.21 µM.

With `Cc1ccc(C(c2ccccc2)N2CCN(C(=O)c3cc(-c4ccccc4F)no3)CC2)c(C)c1` (stereo not drawn) [Compound 11, (4-((2,4-dimethylphenyl)(phenyl)methyl)piperazin-1-yl)(3-(2-fluorophenyl)isoxazol-5-yl)methanone], the IC50 in test [1] (setting [4]) was 2.18 µM; in test [1] (setting [5]) it was 1.13 µM; in test [2] (setting [6]), 2.77 µM; in test [2] (setting [7]) it was 14.8 µM.

Take `Cc1ccc(C(c2ccccc2)N2CCN(Cc3cc(-c4ccccc4F)no3)CC2)c(C)c1` (stereo not drawn) [Compound 12, 5-((4-((2,4-dimethylphenyl)(phenyl)methyl)piperazin-1-yl)methyl)-3-(2-fluorophenyl)isoxazole]: the IC50 in test [1] (setting [4]) turned out to be 0.95 µM; in test [1] (setting [5]) it was 0.57 µM; in test [2] (setting [6]) it was 0.83 µM; in test [2] (setting [7]) it was 3.69 µM.

With `Clc1ccc(C(c2ccccc2)N2CCN(Cc3cc(-c4ccccc4)no3)CC2)c(Cl)c1` (stereo not drawn) [Compound 14, 5-((4-((2,4-dichlorophenyl)(phenyl)methyl)piperazin-1-yl)methyl)-3-phenylisoxazole], the half-inhibitory concentration (IC50) was 22.2 µM in test [1] (setting [4]), 2.24 µM in test [1] (setting [5]), 5.53 µM in test [2] (setting [6]) and more than 16.5 µM in test [2] (setting [7]).

For `O=C(c1cc(-c2ccccc2F)no1)N1CCN(C(c2ccccc2)c2ccc(Cl)cc2Cl)CC1` (stereo not drawn) [Compound 15, (4-((2,4-dichlorophenyl)(phenyl)methyl)piperazin-1-yl)(3-(2-fluorophenyl)isoxazol-5-yl)methanone], the IC50 in test [1] (setting [4]) turned out to be 6.47 µM; in test [1] (setting [5]), 3.38 µM.

In the case of `Fc1ccccc1-c1cc(CN2CCN(C(c3ccccc3)c3ccc(Cl)cc3Cl)CC2)on1` (stereo not drawn) [Compound 16, 5-((4-((2,4-dichlorophenyl)(phenyl)methyl)piperazin-1-yl)methyl)-3-(2-fluorophenyl) isoxazole], the IC50 in test [1] (setting [4]) was 3.15 µM; in test [1] (setting [5]), 1.96 µM.

On to `COCC(=O)O[C@]1(CCN(C)CCCc2nc3ccccc3[nH]2)CCc2cc(F)ccc2[C@@H]1C(C)C` [Mibefradil], for which the “selective for T-type over L-type channels” value in test [3] is 10-30 fold.
